Laboratory results: the supplement of paper PMC10307832

Columns and labels:
Test in all cases: relative viability (nuclei count vs DMSO), 5 days (fraction); higher = more cells survive
HCC-366 = system: HCC-366
Summary of the method: (§1)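 Medians of duplicate plates are given as relative viability. That measure is the nuclei count in treated wells divided by the count in vehicle wells. Counts were taken on 4× images of lung cancer cell lines in 1536-well plates, 5 days after pin-tool dosing the day after seeding with one drug alone or a fixed anchor-drug dose plus five library-drug doses (not always all listed) in √10 steps.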

NCI-H1395 = system: NCI-H1395
Summary of the method: as §1

NCI-H2087 = system: NCI-H2087
Summary of the method: as §1

SK-LU-1 = system: SK-LU-1
Summary of the method: as §1

NCI-H522 = system: NCI-H522
Summary of the method: as §1

NCI-H647 = system: NCI-H647
Summary of the method: as §1

NCI-H2405 = system: NCI-H2405
Summary of the method: as §1

NCI-H1993 = system: NCI-H1993
Summary of the method: as §1

HARA = system: HARA
Summary of the method: as §1

NCI-H2170 = system: NCI-H2170
Summary of the method: as §1

BEN = system: BEN
Summary of the method: as §1

SK-MES-1 = system: SK-MES-1
Summary of the method: as §1

EKVX = system: EKVX
Summary of the method: as §1

NCI-H661 = system: NCI-H661
Summary of the method: as §1

LOU-NH91 = system: LOU-NH91
Summary of the method: as §1

NCI-H1734 = system: NCI-H1734
Summary of the method: as §1

HCC-827 = system: HCC-827
Summary of the method: as §1

NCI-H1792 = system: NCI-H1792
Summary of the method: as §1

NCI-H1437 = system: NCI-H1437
Summary of the method: as §1

NCI-H2009 = system: NCI-H2009
Summary of the method: as §1

NCI-H2342 = system: NCI-H2342
Summary of the method: as §1

NCI-H1355 = system: NCI-H1355
Summary of the method: as §1

Cc1sc2c(c1C)C(c1ccc(Cl)cc1)=N[C@@H](CC(=O)OC(C)(C)C)c1nnc(C)n1-2 [JQ1] + O=C(c1cc(Cc2n[nH]c(=O)c3ccccc23)ccc1F)N1CCN(C(=O)C2CC2)CC1 [Olaparib] (partner 8 µM) showed a relative viability (HCC-366; first compound 0.04 µM) of 0.349, a relative viability (HCC-366; first compound 0.4 µM) of 0.197 and a relative viability (HCC-366; first compound 1.265 µM) of 0.102. It also gave a relative viability (HCC-366; first compound 4 µM) of 0.0747, a relative viability (NCI-H1395; first compound 0.04 µM) of 0.489 and a relative viability (NCI-H1395; first compound 0.1265 µM) of 0.452. The relative viability (NCI-H1395; first compound 0.4 µM) was 0.449, the relative viability (NCI-H1395; first compound 1.265 µM) was 0.378 and the relative viability (NCI-H1395; first compound 4 µM) was 0.356. The relative viability (NCI-H2087; first compound 0.04 µM) was 0.503, the relative viability (NCI-H2087; first compound 0.1265 µM) was 0.509 and the relative viability (NCI-H2087; first compound 0.4 µM) was 0.646. It also gave a relative viability (NCI-H2087; first compound 1.265 µM) of 0.381, a relative viability (NCI-H2087; first compound 4 µM) of 0.297 and a relative viability (SK-LU-1; first compound 0.04 µM) of 0.452. The relative viability (SK-LU-1; first compound 0.1265 µM) was 0.358, the relative viability (SK-LU-1; first compound 0.4 µM) was 0.374 and the relative viability (SK-LU-1; first compound 1.265 µM) was 0.153. For the same compound, the relative viability (SK-LU-1; first compound 4 µM) was 0.124, the relative viability (NCI-H522; first compound 0.04 µM) was 0.577 and the relative viability (NCI-H522; first compound 0.1265 µM) was 0.674. For the same compound, the relative viability (NCI-H522; first compound 0.4 µM) was 0.453, the relative viability (NCI-H522; first compound 1.265 µM) was 0.388 and the relative viability (NCI-H522; first compound 4 µM) was 0.344. The relative viability (NCI-H647; first compound 0.04 µM) was 0.384, the relative viability (NCI-H647; first compound 0.1265 µM) was 0.185 and the relative viability (NCI-H647; first compound 0.4 µM) was 0.128. The relative viability (NCI-H647; first compound 1.265 µM) was 0.0378, the relative viability (NCI-H647; first compound 4 µM) was 0.036 and the relative viability (NCI-H2405; first compound 0.04 µM) was 0.867. For the same compound, the relative viability (NCI-H2405; first compound 0.4 µM) was 0.851, the relative viability (NCI-H2405; first compound 1.265 µM) was 0.693 and the relative viability (NCI-H2405; first compound 4 µM) was 0.433. For the same compound, the relative viability (NCI-H1993; first compound 0.04 µM) was 0.922, the relative viability (NCI-H1993; first compound 0.1265 µM) was 0.994 and the relative viability (NCI-H1993; first compound 0.4 µM) was 1.1. For the same compound, the relative viability (NCI-H1993; first compound 1.265 µM) was 0.807, the relative viability (NCI-H1993; first compound 4 µM) was 0.584 and the relative viability (HARA; first compound 0.04 µM) was 0.739. For the same compound, the relative viability (HARA; first compound 0.1265 µM) was 0.484, the relative viability (HARA; first compound 0.4 µM) was 0.321 and the relative viability (HARA; first compound 1.265 µM) was 0.308. It also gave a relative viability (HARA; first compound 4 µM) of 0.18, a relative viability (NCI-H2170; first compound 0.04 µM) of 0.614 and a relative viability (NCI-H2170; first compound 0.1265 µM) of 0.532. For the same compound, the relative viability (NCI-H2170; first compound 0.4 µM) was 0.361, the relative viability (NCI-H2170; first compound 1.265 µM) was 0.226 and the relative viability (NCI-H2170; first compound 4 µM) was 0.213. It also gave a relative viability (BEN; first compound 0.04 µM) of 1.02, a relative viability (BEN; first compound 0.1265 µM) of 0.76 and a relative viability (BEN; first compound 0.4 µM) of 0.671. The relative viability (BEN; first compound 1.265 µM) was 0.346, the relative viability (BEN; first compound 4 µM) was 0.243 and the relative viability (SK-MES-1; first compound 0.04 µM) was 0.671. It also gave a relative viability (SK-MES-1; first compound 0.1265 µM) of 0.606, a relative viability (SK-MES-1; first compound 0.4 µM) of 0.385 and a relative viability (SK-MES-1; first compound 1.265 µM) of 0.208. It also gave a relative viability (SK-MES-1; first compound 4 µM) of 0.209, a relative viability (EKVX; first compound 0.04 µM) of 0.836 and a relative viability (EKVX; first compound 0.1265 µM) of 0.817. The relative viability (EKVX; first compound 0.4 µM) was 0.825, the relative viability (EKVX; first compound 1.265 µM) was 0.78 and the relative viability (EKVX; first compound 4 µM) was 0.399. It also gave a relative viability (NCI-H661; first compound 0.04 µM) of 0.75, a relative viability (NCI-H661; first compound 0.1265 µM) of 0.709 and a relative viability (NCI-H661; first compound 0.4 µM) of 0.781. For the same compound, the relative viability (NCI-H661; first compound 1.265 µM) was 0.536, the relative viability (NCI-H661; first compound 4 µM) was 0.427 and the relative viability (LOU-NH91; first compound 0.04 µM) was 0.911. It also gave a relative viability (LOU-NH91; first compound 0.1265 µM) of 0.769, a relative viability (LOU-NH91; first compound 0.4 µM) of 0.647 and a relative viability (LOU-NH91; first compound 1.265 µM) of 0.488. The relative viability (LOU-NH91; first compound 4 µM) was 0.421, the relative viability (NCI-H1734; first compound 0.04 µM) was 0.606 and the relative viability (NCI-H1734; first compound 0.1265 µM) was 0.556. The relative viability (NCI-H1734; first compound 0.4 µM) was 0.563, the relative viability (NCI-H1734; first compound 1.265 µM) was 0.47 and the relative viability (NCI-H1734; first compound 4 µM) was 0.349. It also gave a relative viability (HCC-827; first compound 0.04 µM) of 0.622, a relative viability (HCC-827; first compound 0.1265 µM) of 0.477 and a relative viability (HCC-827; first compound 1.265 µM) of 0.596. The relative viability (HCC-827; first compound 4 µM) was 0.363, the relative viability (NCI-H1792; first compound 0.04 µM) was 0.378 and the relative viability (NCI-H1792; first compound 0.1265 µM) was 0.266. It also gave a relative viability (NCI-H1792; first compound 0.4 µM) of 0.392, a relative viability (NCI-H1792; first compound 1.265 µM) of 0.139 and a relative viability (NCI-H1792; first compound 4 µM) of 0.0406. It also gave a relative viability (NCI-H1437; first compound 0.04 µM) of 0.595, a relative viability (NCI-H1437; first compound 0.1265 µM) of 0.572 and a relative viability (NCI-H1437; first compound 0.4 µM) of 0.519. For the same compound, the relative viability (NCI-H1437; first compound 1.265 µM) was 0.29, the relative viability (NCI-H1437; first compound 4 µM) was 0.279 and the relative viability (NCI-H2009; first compound 0.04 µM) was 0.689. It also gave a relative viability (NCI-H2009; first compound 0.1265 µM) of 0.548, a relative viability (NCI-H2009; first compound 0.4 µM) of 0.545 and a relative viability (NCI-H2009; first compound 1.265 µM) of 0.198. It also gave a relative viability (NCI-H2009; first compound 4 µM) of 0.152, a relative viability (NCI-H2342; first compound 0.04 µM) of 0.5 and a relative viability (NCI-H2342; first compound 0.1265 µM) of 0.501. It also gave a relative viability (NCI-H2342; first compound 0.4 µM) of 0.476, a relative viability (NCI-H2342; first compound 1.265 µM) of 0.313 and a relative viability (NCI-H2342; first compound 4 µM) of 0.295. The relative viability (NCI-H1355; first compound 0.04 µM) was 0.626, the relative viability (NCI-H1355; first compound 0.1265 µM) was 0.697 and the relative viability (NCI-H1355; first compound 0.4 µM) was 0.643. It also gave a relative viability (NCI-H1355; first compound 1.265 µM) of 0.403 and a relative viability (NCI-H1355; first compound 4 µM) of 0.344.
